From ChEMBL document CHEMBL1159147, “4-(2-PYRTOYL)-5-phenylthiazoles as novel non-bicyclic reversible inhibitors of the gastric H+/K+-atpase” (Bioorg Med Chem Lett, 1995)

Tests used:
[1] = target: T1, Potassium-transporting ATPase alpha chain 1 (Sus scrofa, UniProt P19156); experiment: Ability to inhibit H+/K+ stimulated ATPase activity in lympholised gastric vesicles; type: tissue-based, Stomach
Rattus norvegicus = experiment: Compound was tested in vivo for its ability to inhibit pentagastrin-stimulated gastric acid secretion in the anesthetized lumen perfused rat at 10 umol/kg iv; type: functional; conditions: Stomach
[2] = Acid dissociation constant was reported; type: ADME
[3] = target: T1, Potassium-transporting ATPase alpha chain 1; experiment: Compound was evaluated for its ability to inhibit K+-stimulated ATPase activity
[4] = Ability to inhibit Na(+)/K(+)-stimulated ATPase activity in hog kidney; design: species or system Sus scrofa

T1 sequence (P19156 whole entry, the tested form may be a part): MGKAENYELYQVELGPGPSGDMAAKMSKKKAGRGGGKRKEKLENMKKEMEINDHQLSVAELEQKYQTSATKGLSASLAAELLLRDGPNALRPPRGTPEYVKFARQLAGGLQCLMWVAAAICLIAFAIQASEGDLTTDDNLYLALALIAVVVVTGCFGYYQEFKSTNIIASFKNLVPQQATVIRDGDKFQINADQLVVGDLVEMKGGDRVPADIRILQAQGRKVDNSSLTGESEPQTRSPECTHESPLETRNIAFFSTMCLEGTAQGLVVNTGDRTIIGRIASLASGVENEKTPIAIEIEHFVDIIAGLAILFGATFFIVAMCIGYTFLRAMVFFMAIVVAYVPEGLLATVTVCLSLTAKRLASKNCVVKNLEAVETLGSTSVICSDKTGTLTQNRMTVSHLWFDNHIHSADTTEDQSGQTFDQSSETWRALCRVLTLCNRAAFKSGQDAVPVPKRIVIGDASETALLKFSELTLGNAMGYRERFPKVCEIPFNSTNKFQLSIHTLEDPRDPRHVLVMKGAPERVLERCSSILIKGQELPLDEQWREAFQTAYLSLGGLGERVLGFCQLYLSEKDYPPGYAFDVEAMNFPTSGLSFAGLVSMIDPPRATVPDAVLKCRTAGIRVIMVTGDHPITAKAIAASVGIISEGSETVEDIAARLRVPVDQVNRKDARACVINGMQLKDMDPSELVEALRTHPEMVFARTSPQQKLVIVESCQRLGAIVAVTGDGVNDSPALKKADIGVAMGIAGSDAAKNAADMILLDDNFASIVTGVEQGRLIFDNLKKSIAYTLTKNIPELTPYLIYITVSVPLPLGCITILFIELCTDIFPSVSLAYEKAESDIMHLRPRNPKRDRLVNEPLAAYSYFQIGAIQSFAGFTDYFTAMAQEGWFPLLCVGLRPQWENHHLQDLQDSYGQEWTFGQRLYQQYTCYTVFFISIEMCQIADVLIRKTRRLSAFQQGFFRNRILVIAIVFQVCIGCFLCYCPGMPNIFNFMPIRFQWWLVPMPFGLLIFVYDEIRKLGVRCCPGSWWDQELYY

| Compound | IC50 [1] | inhibition in vivo at 10 µmol/kg (Rattus norvegicus) | pKa [2] | Ki [3] | IC50 [4] |
| --- | --- | --- | --- | --- | --- |
| CCCc1nc(-c2cccc(NC)n2)c(-c2ccccc2C)s1 | 12.5 µM | 42% |  |  |  |
| CCCc1nc(-c2ccccn2)c(-c2ccccc2C)s1 | 8.2 µM | 26% | 4.2 |  |  |
| Cc1ccccc1-c1sc(Cc2ccccc2)nc1-c1ccccn1 | 9.6 µM | 29% |  |  |  |
| CCCc1nc(-c2cccc(N)n2)c(-c2ccccc2C)s1 | 2.9 µM | 48% |  |  |  |
| CCCc1nc(-c2cc(N)ccn2)c(-c2ccccc2C)s1 | 2.2 µM | 36% | 8 | 0.838 µM | 44 µM |
| Cc1ccccc1N1CCc2cnc3c(C)cccc3c21 | 0.98 µM | 47% |  |  |  |
| CCCc1nc(-c2ccccn2)c(-c2ccccc2)s1 | 42.3 µM | 21% |  |  |  |
| Cc1ccccc1-c1nc(-c2ccccn2)c(-c2ccccc2C)s1 | 4.9 µM |  |  |  |  |
| CCOC(=O)c1cnc2c(OC)cccc2c1Nc1ccccc1C |  |  | 6.7 |  |  |
